Results on two compounds are retold here after patent US20070197510A1, “Nitriles and medicinal compositions containing the same as the active ingredient” (priority 2004, published 2007).

In this assay the target is T1, cathepsin K (Homo sapiens, UniProt P43235).
T1 sequence (P43235 115-329): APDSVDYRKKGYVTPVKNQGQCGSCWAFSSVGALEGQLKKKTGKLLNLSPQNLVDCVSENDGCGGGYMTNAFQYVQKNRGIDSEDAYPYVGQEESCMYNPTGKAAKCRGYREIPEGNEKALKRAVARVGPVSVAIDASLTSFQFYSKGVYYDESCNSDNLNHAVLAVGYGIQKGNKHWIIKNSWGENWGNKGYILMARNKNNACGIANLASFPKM
As to the kind of experiment: Measurement of cathepsin K inhibitory activity. The assay is classed as biochemical. The note with it: fluorogenic substrate Boc-Ala-Gly-Pro-Arg-MCA, pH 5.5, 37° C. How it is done: (i) Measurement of Cathepsin k Inhibitory Activity
65 μL of Cathepsin K Enzyme Reaction Buffer (50 Mmol/L of 2-(N-morpholino)ethanesulfonate, 2 mmol/L of ethylenediaminetetraacetate (EDTA) and 4 mmol/L of dithiothreitol (DTT) were mixed to adjust to pH 5.5), 5 μL of cysteine protease inhibitor solution of several concentrations, 20 μL of synthesized substrate (t-butyloxycarbonyl-L-alanyl-glycyl-L-prolyl-L-arginine-[…]) solution of several concentrations and 10 μL of cathepsin K enzyme solution were mixed and the increase of fluorescence intensity when reacted at 37° C. was measured (λex (excitation wavelength)=355 nm, λem (fluorescence wavelength)=460 nm). As to the substrate and the compound of the present invention, enzyme reactions were carried […]

As usually defined, the IC50 is the concentration that gives 50% inhibition. On to `CN1CCN(C(=O)CN2Cc3cnc(C#N)nc3N(CC(C)(C)C)C2=O)CC1` [Example 55(14), 8-(2,2-dimethylpropyl)-6-[2-(4-methyl-1-piperazinyl)-2-oxoethyl]-7-oxo-5,6,7,8-tetrahydropyrimido[4,5-d]pyrimidine-2-carbonitrile], for which the half-maximal inhibitory concentration (IC50) was 12 nM.

In turn, `CC(C)(C)Cn1c2nc(C#N)ncc2c(=O)n1Cc1cccs1` [compound 8(2B), 1-(2,2-dimethylpropyl)-3-oxo-2-(2-thienylmethyl)-2,3-dihydro-1H-pyrazolo[3,4-d]pyrimidine-6-carbonitrile] gave a 50% inhibitory concentration (IC50) of 2.9 nM.
